Measured values reported in US10859504B2, “Degradable cationic surfactants and use thereof in enhancing chemiluminescence” (Siemens Healthcare Diagnostics Inc., priority 2013, dated 2020).

What was measured:
[1] = Chemiluminescence measurement of anti-TSH antibody conjugate of acridinium ester 3c with cationic surfactants; conditions: for Observed enhancement (fold) of chemiluminescence: no surfactant control = 1; for Observed acceleration of emission kinetics (time to >90% emission): without surfactant 62.5 seconds
Description: (§1) To study the impact of degradable cationic surfactants on acridinium ester chemiluminescence, two exemplary cationic surfactants containing cleavable linkages (FIG. 2A) were selected. The synthetic schemes for the two surfactants are illustrated in FIGS. 3-4 and described in Examples 1 and 2 above. Both surfactants were dissolved in Reagent 1 (0.1 M nitric acid containing 0.5% hydrogen peroxide) at five times their reported CMCs in water. CTAC dissolved in Reagent 2 (0.25 M NaOH) was used as the control surfactant. The two carbonate and amide cationic surfactants (FIG. 2A) were dissolved in Reagent 1 to preserve stability, especially during long term storage (Stjerndahl and Holmberg, J. Colloid and Interface Sci., 2005, 291, 570-576). Three acridinium esters (FIG. 2B, compounds 3a, 3b and 3c) were used to make protein conjugates of an anti-TSH antibody (TS=thyroid stimulating hormone) as described in the literature (Natrajan et al, Org. Biomol. Chem., 2011, 9, 5092-5103; Natrajan et al, Org. Biomol. Chem., 2012, 10, 3432-3447). The conjugates contained approximately 5 labels. The conjugates were stored at 4° C. in buffer and chemiluminescence from each conjugate was measured in the absence of surfactant and in the presence of CTAC as well as cationic surfactants 1 and 2 (Tables 1-3, FIGS. 5-7). The ability of each surfactant to (a) increase total light output and (b) accelerate emission kinetics was evaluated over a period of 80 days.
(§2) Chemiluminescence of anti-TSH antibody conjugates of acridinium esters 3a, 3b and 3c (FIG. 2B) was measured on an Autolumat LB953 Plus luininometer from Behold Technologies. The conjugates, ˜2 mg/mL containing approximately five labels, were serially diluted 10^5-fold for chemiluminescence measurements in an aqueous buffer of 10 mM disodium hydrogen phosphate, 0.15 M NaCl and 8 mM sodium azide and 0.015 mM bovine serum albumin (BSA), pH 8.0. A 0.010 mL volume of each diluted acridinium ester sample was dispensed into the bottom of a cuvette. Cuvettes were placed into the primed LB953 and the chemiluminescence reaction was initiated with the sequential addition of 0.3 mL of Reagent 1, a solution of 0.5% hydrogen peroxide in 0.1 M nitric acid followed by the addition of 0.3 mL of Reagent 2, a solution of 0.25 M sodium hydroxide. For measurements in the presence of CTAC, the surfactant (7 mM) was included in Reagent 2. For measurements in the presence of the cationic amide surfactant 1 or the cationic carbonate surfactant 2, each surfactant was dissolved in Reagent 1 at 3.2 mM (surfactant 1) and 2.15 mM (surfactant 2). Each chemiluminescence flash curve was measured in 240 intervals of 0.5 second (120 seconds total time). Each chemiluminescence reaction was carried out a minimum of three times, averaged and converted to a percentage of the chemiluminescence accumulated up to each time interval. The output from the luminometer instrument was expressed as R.L.U.s (Relative Light Units).

[2] = Stability of surfactants in Reagent 1 (0.5% peroxide in 0.1 M nitric acid) on storage; format: physicochemical; conditions: for stability in Reagent 1: 0.5% peroxide in 0.1 M nitric acid, 80 days at room temperature, little loss in ability to enhance chemiluminescence; for ability to accelerate light emission after storage: 80 days of storage at room temperature
Description: as §1
For example, for all three acridinium ester conjugates, in comparison to the no surfactant control which was assigned a relative light yield of one, total light yield was increased approximately 2.5-4-fold for 3a, 3-5-fold for 3b and 3-4.5-fold for 3c (Tables 1a, 2a and 3a) for CTAC as well as surfactants 1 and 2. […] Even at day 80, the fold of increased light emission using surfactant 2 remains to be about 80% (2.8/3.5) of CTAC. Similarly, the fold of increased light emission using Surfactant 1 is about 89% (3.1/3.5) on day 1, and 74% (2.6/3.5) on day 80 compared to CTAC.
Furthermore, both surfactants 1 and 2 were very effective in accelerating light emission from the acridinium ester antibody conjugates (Tables 1b, 2b and 3b, FIGS. 5-7). […] In the presence of CTAC or the two cationic surfactants 1 and 2, emission times were compressed to <3 seconds for the conjugates of all three acridinium ester labels.

[3] = Chemiluminescence measurement of anti-TSH antibody conjugate of acridinium ester 3b with cationic surfactants; conditions: for Observed enhancement (fold) of chemiluminescence: no surfactant control = 1; for Observed acceleration of emission kinetics (time to >90% emission): without surfactant 49.5 seconds
Description: as §1, §2

[4] = Chemiluminescence measurement of anti-TSH antibody conjugate of acridinium ester 3a with cationic surfactants; conditions: for Observed enhancement (fold) of chemiluminescence: no surfactant control = 1; for Observed acceleration of emission kinetics (time to >90% emission): without surfactant 57.5 seconds; for accelerated emission kinetics: as shown in Table 1b, from 57.5 seconds without surfactant
Description: as §1, §2

Compound	Observed enhancement (fold) of chemiluminescence ([1]; Day 1) [fold]	Observed acceleration of emission kinetics (time to >90% emission) ([1]; Day 1) [s]	Observed enhancement (fold) of chemiluminescence ([1]; Day 10) [fold]	Observed acceleration of emission kinetics (time to >90% emission) ([1]; Day 10) [s]	Observed enhancement (fold) of chemiluminescence ([1]; Day 20) [fold]	Observed acceleration of emission kinetics (time to >90% emission) ([1]; Day 20) [s]	Observed enhancement (fold) of chemiluminescence ([1]; Day 40) [fold]	Observed acceleration of emission kinetics (time to >90% emission) ([1]; Day 40) [s]	Observed enhancement (fold) of chemiluminescence ([1]; Day 80) [fold]	Observed acceleration of emission kinetics (time to >90% emission) ([1]; Day 80) [s]	stability in Reagent 1 [2]	ability to accelerate light emission after storage [2]	Observed enhancement (fold) of chemiluminescence ([3]; Day 1) [fold]	Observed acceleration of emission kinetics (time to >90% emission) ([3]; Day 1) [s]	Observed enhancement (fold) of chemiluminescence ([3]; Day 10) [fold]	Observed acceleration of emission kinetics (time to >90% emission) ([3]; Day 10) [s]	Observed enhancement (fold) of chemiluminescence ([3]; Day 20) [fold]	Observed acceleration of emission kinetics (time to >90% emission) ([3]; Day 20) [s]	Observed enhancement (fold) of chemiluminescence ([3]; Day 40) [fold]	Observed acceleration of emission kinetics (time to >90% emission) ([3]; Day 40) [s]	also measured
CCCCCCCCCCCCOC(=O)OCCCC[N+](C)(C)C [surfactant 2]	4.2	1.0	4.2	1.0	4.4	1.5	3.7	1.5	3.5	1.5	quite stable	did not diminish	5.0	0.5	5.2	0.5	5.2	0.5	3.9	0.5	Observed enhancement (fold) of chemiluminescence ([3]; Day 80): 4.1 fold; Observed acceleration of emission kinetics (time to >90% emission) ([3]; Day 80): 0.5 s; Observed enhancement (fold) of chemiluminescence ([4]; Day 1): 3.5 fold; Observed acceleration of emission kinetics (time to >90% emission) ([4]; Day 1): 1.0 s; Observed enhancement (fold) of chemiluminescence ([4]; Day 10): 3.6 fold; Observed acceleration of emission kinetics (time to >90% emission) ([4]; Day 10): 1.0 s; Observed enhancement (fold) of chemiluminescence ([4]; Day 20): 3.7 fold; Observed acceleration of emission kinetics (time to >90% emission) ([4]; Day 20): 1.0 s; Observed enhancement (fold) of chemiluminescence ([4]; Day 40): 3.2 fold; Observed acceleration of emission kinetics (time to >90% emission) ([4]; Day 40): 1.0 s; Observed enhancement (fold) of chemiluminescence ([4]; Day 80): 2.8 fold; Observed acceleration of emission kinetics (time to >90% emission) ([4]; Day 80): 1.0 s; accelerated emission kinetics [4]: 1.0 s; fold of increased light emission compared to CTAC ([4]; day 80): about 80%; effectiveness in enhancing chemiluminescence relative to CTAC ([4]; within at least the first 10 days (Table 1a)): as effective as CTAC
CCCCCCCCCCCCCCCC(=O)NCC[N+](C)(C)C [surfactant 1]	3.8	2.0	3.8	2.0	4.1	2.0	3.2	2.0	3.0	2.0	quite stable	did not diminish	4.5	1.0	4.4	0.5	4.7	0.5	3.4	0.5	Observed enhancement (fold) of chemiluminescence ([3]; Day 80): 3.4 fold; Observed acceleration of emission kinetics (time to >90% emission) ([3]; Day 80): 0.5 s; Observed enhancement (fold) of chemiluminescence ([4]; Day 1): 3.1 fold; Observed acceleration of emission kinetics (time to >90% emission) ([4]; Day 1): 1.0 s; Observed enhancement (fold) of chemiluminescence ([4]; Day 10): 3.1 fold; Observed acceleration of emission kinetics (time to >90% emission) ([4]; Day 10): 1.0 s; Observed enhancement (fold) of chemiluminescence ([4]; Day 20): 3.4 fold; Observed acceleration of emission kinetics (time to >90% emission) ([4]; Day 20): 1.0 s; Observed enhancement (fold) of chemiluminescence ([4]; Day 40): 2.6 fold; Observed acceleration of emission kinetics (time to >90% emission) ([4]; Day 40): 1.0 s; Observed enhancement (fold) of chemiluminescence ([4]; Day 80): 2.6 fold; Observed acceleration of emission kinetics (time to >90% emission) ([4]; Day 80): 1.0 s; accelerated emission kinetics [4]: 1.0 s; fold of increased light emission compared to CTAC ([4]; day 1): about 89%; fold of increased light emission compared to CTAC ([4]; day 80): ~74%
